The values that follow are results of earlier work, collected in US20180042936A1, “MAINTENANCE THERAPY USING TIANEPTINE” (GENOMIND, Inc., priority 2016, published 2018).

Where two headings read alike, the source gives them in different places. Bounds are passed on as bounds.

For data set [1] the following is noted: some individuals with treatment-resistant major depressive disorder and bipolar disorder.
Data set [2] relates to brain derived neurotrophic factor (BDNF). The following applies: responders compared to non-responders.

Consider `CNC1(c2ccccc2Cl)CCCCC1=O` (racemic) [Ketamine, (RS)-2-(2-Chlorophenyl)-2-(methylamino)cyclohexanone], for which the “time to anti-depression efficacy” value in data set [1] is ≤ 1 h. Besides, the “plasma BDNF levels” value was “significantly increased” in data set [2] (240 min post-infusion (Haile et al. 2014)) and “increases plasma BDNF levels” in data set [2] (post-infusion of ketamine (Example 1)).
